{"source": "paper PMC12598616", "about": "“Design and optimization of caspase-1-responsive fluorescent probes for pyroptosis imaging and anti-pyroptosis drug screening” (Chemical Science, 2025)", "key": {"[1]": {"system": "osteoarthritis mouse model (ACL transection)", "assay": "In vivo fluorescence imaging of osteoarthritis", "design": "species or system C57BL/6J mouse", "conditions": "injected into joint cavity; 0, 7, 14, 21 days post-surgery", "protocol": "The decline in chondrocyte function plays a crucial role in the pathogenesis of OA. Inflammasome-mediated chondrocyte pyroptosis has been closely associated with matrix degradation and cartilage degeneration in OA.[38] To model OA in vitro, primary chondrocytes were stimulated with H2O2 (2 mM) for different durations, followed by staining with FPy1 (5 μM) and fluorescence imaging to monitor the progression of pyroptosis under oxidative stress. […] To better mimic the in vivo pathological features of OA, primary chondrocytes were also cultured as three-dimensional spheroids and stimulated with H2O2. […] Furthermore, we evaluated the capability of FPy1 to monitor pyroptosis progression at different stages of OA in a mouse model. […] The pathological manifestations in the corresponding tissues became more pronounced with longer modeling periods, consistent with the fluorescence imaging results obtained using FPy1. […]\nHarvested rat discs were fixed in 4 % buffered paraformaldehyde for 24 hours, decalcified in 10 % ethylenediaminetetraacetic acid (EDTA, Solarbio, E8030) solution for 1 month, embedded in paraffin, and sectioned at a thickness of 5 μm. […] Stained sections were evaluated by three independent raters, blinded to the research protocol, and measurements were averaged for statistical analysis. […]\nIn vivo fluorescence imaging of intervertebral disc degeneration […]"}, "[2]": {"system": "Cas-1 in primary NP cells", "assay": "Intracellular imaging in nucleus pulposus cells", "assay_type": "cell-based, rat", "conditions": "H2O2 2 mM 30, 60, 90 min; FPy1 5 μM 1 h", "excerpt": "With advancing age, the prevalence of degenerative bone and joint disorders (DBJDs), such as intervertebral disc degeneration (IVDD) and osteoarthritis (OA), increases markedly among middle-aged and elderly individuals.[30] Chronic inflammation has been identified as the underlying cause of DBJDs. In particular, inflammasome-mediated pyroptosis has been recognized as a primary contributor to sustained inflammatory responses.[31] Consequently, pyroptosis-associated biomarkers represent promising indicators for the diagnosis and monitoring of DBJDs. IVDD, a chronic degenerative condition closely related to natural aging, has become one of the leading causes of disability worldwide.[32] […] The imaging results indicated a positive correlation between fluorescence intensity and H2O2-stimulation time (Fig. 4b). […] Encouraged by the promising imaging results of FPy1 in NP cells and cell spheroids, we further assessed its capability for imaging pytoptosis in vivo. […] Following intradiscal injection of FPy1, the fluorescence images of the tail modeling site were obtained from the dorsal aspect. […] Histological scoring result corroborated these findings, reflecting the same trends as with fluorescence imaging observed using FPy1 (Fig. S13b). […]\nThe cytotoxicity of FPy1 and YPy1 to THP-1 was evaluated by cell counting kit-8 (CCK-8). […]"}}, "data": [{"substance": "–FLTDG– [FPy1, RhoB donor, hNR quencher]", "values": [{"measurement": "in vivo fluorescence signals in knee joints", "setting": "[1]", "value": "gradually increasing as the modeling duration was extended"}, {"measurement": "intracellular fluorescence intensity in NP cells", "setting": "[2]", "value": "increased with the duration of H2O2 stimulation"}]}]}
